From patent publication US5373020A, “Substituted 5-(2-((2-aryl-2-hydroxyethyl)amino)propyl)-1,3-benzodioxoles” (American Cyanamid Company, priority 1993, dated 1994)
pEC50: −log10 of the molar value. Like-named read-outs stand apart in the source and are kept apart here.

Experiments:
ob/ob mice = assay: Plasma glucose, compound in chow, obese mice; type: in vivo, mouse (C57 B1/6J ob/ob)
Experimental: (§1) The compounds of this invention were tested for hypoglycemic and anti-obesity activity according to the following procedure.
(§2) Obese mice (C57 B1/6J (ob/ob)), and/or diabetic mice (C57 B1/KsJ (db/db)) were obtained from Jackson Laboratories, Bar Harbor, Maine. Obese rats (fa/fa) were obtained from Charles River Laboratories, Wilmington, Mass. Obese mice were 8 weeks of age and diabetic mice were 9 weeks of age at the start of the test. Obese rats were 12-14 weeks of age at the start.
(§3) The test compounds were dissolved in methanol, mixed with powdered Purina rodent chow on a weight of compound to weight of chow basis and thoroughly dried.
(§4) Groups of 6 control mice or rats received vehicle (methanol) treated chow.
[…] Thus, a 40 g mouse, fed the test compound at a concentration of 0.02 percent of the diet, would receive a dose of 20 mg/kg/day if it ate 4 g of chow per day.
(§5) The mice or rats were weighed before the first treatment and once at the end of each indicated treatment period.
(§6) Blood samples were collected before the first treatment and once at the end of each indicated treatment period by retro-orbital puncture using heparinized capillary tubes.
(§7) Plasma was separated by centrifugation in a Beckman microfuge for 5 minutes. Plasma glucose concentrations were determined with the Beckman glucose analyzer which uses a glucose oxidase method.

db/db mice = assay: Plasma glucose, compound in chow, diabetic mice; type: in vivo, mouse (C57 B1/KsJ db/db); settings: dose 0.005 % wt of chow
Experimental: as §1, §2, §3, §4
Groups of 6 test mice were fed ad libitum for up to seven weeks and food consumption was measured daily by weighing the food bins before and after the addition of fresh chow. Thus, a 40 g mouse, fed the test compound at a concentration of 0.02 percent of the diet, would receive a dose of 20 mg/kg/day if it ate 4 g of chow per day.
as §5, §6, §7

β2-receptors = biological target: T1, β2-receptors (Mus musculus, UniProt P18762); assay: Inhibition of insulin-mediated incorporation of 14C-glucose into glycogen in isolated soleus muscle (β2-effect); settings: for β2 activity: CL1 vs BRL1 (FIG. 1), CL2 vs BRL2 (FIG. 2)
T1 construct: Soleus muscle from mice were dissected; from tissue; host or cells: mouse soleus muscle
T1 sequence (P18762 whole entry): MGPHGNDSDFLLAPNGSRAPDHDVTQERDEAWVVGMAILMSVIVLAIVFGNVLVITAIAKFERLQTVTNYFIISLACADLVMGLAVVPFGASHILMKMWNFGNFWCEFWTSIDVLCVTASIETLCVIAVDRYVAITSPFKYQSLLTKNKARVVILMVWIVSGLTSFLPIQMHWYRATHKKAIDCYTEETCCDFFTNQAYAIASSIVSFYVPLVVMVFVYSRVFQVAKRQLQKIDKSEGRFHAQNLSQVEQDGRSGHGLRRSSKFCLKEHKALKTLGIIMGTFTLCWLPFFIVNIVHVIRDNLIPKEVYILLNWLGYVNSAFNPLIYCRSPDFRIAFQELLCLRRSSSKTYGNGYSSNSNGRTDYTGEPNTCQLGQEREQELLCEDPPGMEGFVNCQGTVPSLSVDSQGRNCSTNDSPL
Experimental: (§8) β-Adrenergic receptors can be divided into β1, β2 and β3 -subtypes. Activation of β1 -receptors invokes increases in heart rate while activation of β2 -receptors stimulates glycogen breakdown in muscle and thereby prevents glycogen synthesis. Activation of β3 -receptors stimulates lipolysis (the breakdown of adipose tissue triglycerides to glycerol and free fatty acids), and thereby promotes the loss of fat mass.
The β2 -effect of the compounds was determined by their ability to inhibit the insulin-mediated incorporation of ^14 C-glucose into glycogen in isolated muscle. Soleus muscle from mice were dissected, tied at each end, and placed in a clamp to maintain tension. The clamped muscle was added to a vial that contained 2 ml of KHB with 1.5% bovine serum albumin, 0.3 mU/ml insulin, 5 mM (U^-14 C) glucose, and the appropriate additions of compound or vehicle. The vial was gassed with 95% O2 -5% CO2, capped, and the tissue incubated for one hour in a rotating water bath at 37° C. The muscle was then removed, rinsed in ice-cold saline, blotted and weighed. It was then added to 1 ml of 30% KOH containing 5 mg/ml of oyster glycogen, boiled for 10 minutes, and 0.4 ml of 2% Na2 SO4 and 3.2 ml of 100% ethanol added. After standing overnight at 4° C., the glycogen was pelleted by centrifugation, washed once with 66% ethanol, and repelleted. The pellet was dissolved in 1 ml of water and the amount of radioactivity present determined by liquid scintillation.

β3-receptors = biological target: T2, β3-receptors (Rattus norvegicus, UniProt P26255); assay: Stimulation of adipocyte lipolysis (β3-effect); type: cell-based
T2 construct: Rat epididymal fat pads were excised and placed in 0.9% saline; from tissue; host or cells: collagenase-isolated adipocytes from rat epididymal fat pads
T2 sequence (P26255 whole entry): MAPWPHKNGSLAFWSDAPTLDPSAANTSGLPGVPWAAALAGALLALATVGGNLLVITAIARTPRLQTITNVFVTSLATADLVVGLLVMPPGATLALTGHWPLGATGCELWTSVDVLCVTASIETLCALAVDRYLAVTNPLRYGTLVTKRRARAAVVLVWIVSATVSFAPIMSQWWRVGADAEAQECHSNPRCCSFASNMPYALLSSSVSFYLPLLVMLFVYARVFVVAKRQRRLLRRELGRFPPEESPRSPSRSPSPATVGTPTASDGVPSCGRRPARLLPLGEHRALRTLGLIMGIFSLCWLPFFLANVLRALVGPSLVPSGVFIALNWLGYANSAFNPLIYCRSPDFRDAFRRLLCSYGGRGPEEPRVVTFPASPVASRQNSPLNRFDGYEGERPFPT
Experimental: as §8
The β3 -effect of the compounds was determined by their ability to stimulate adipocyte lipolysis. Rat epididymal fat pads were excised and placed in 0.9% saline. Four grams of tissue were transferred to a flask with 20 ml of aerated Krebs-Henseleit bicarbonate (KHB) buffer containing 3% fatty acid-free bovine serum albumin to which 75 mg of crude bacterial collagenase (Worthington) had been added. The tissue was incubated for about 45 minutes at 37° C. with gentle shaking. The cells were then washed three times with two volumes of KHB buffer, filtered through two layers of gauze, and brought to a final volume of 80 ml with KHB buffer. One ml aliquots of the cell suspension were added to plastic test tubes containing the appropriate additions of vehicle or compound. The cells were gassed for 1 minute with 95% O2 -5% CO2, capped, and incubated at 37° C. with continuous shaking for a total of 30 minutes. The reaction was stopped by adding 0.1 ml of 30% perchloric acid and 0.1 ml of chloroform. After centrifugation, 0.5 ml of supernatant was transferred to another test tube and neutralized with 0.04 ml of 3M K2 CO3 -0.5M triethanolamine. The amount-of glycerol generated from the hydrolysis of endogenous triglycerides was determined in a coupled-enzyme spectrophotometric assay. […] The test tubes were incubated for 40 minutes at 37° C. with constant shaking. […] This value was corrected for the amount of NADH generated in the absence of glycerol by incubating another aliquot of the neutralized extract with the same assay mixture but without glycerokinase.

β1-receptors = biological target: T3, β1-receptors (Cavia porcellus, UniProt H0W3H1); assay: Effect on heart rate of isolated right atria (β1-effect); parameters: species or system guinea pig; settings: for β1 activity: CL1 vs BRL1 (FIG. 1), CL2 vs BRL2 (FIG. 2)
T3 construct: from tissue; host or cells: guinea pig right atria
T3 sequence (H0W3H1 1-470): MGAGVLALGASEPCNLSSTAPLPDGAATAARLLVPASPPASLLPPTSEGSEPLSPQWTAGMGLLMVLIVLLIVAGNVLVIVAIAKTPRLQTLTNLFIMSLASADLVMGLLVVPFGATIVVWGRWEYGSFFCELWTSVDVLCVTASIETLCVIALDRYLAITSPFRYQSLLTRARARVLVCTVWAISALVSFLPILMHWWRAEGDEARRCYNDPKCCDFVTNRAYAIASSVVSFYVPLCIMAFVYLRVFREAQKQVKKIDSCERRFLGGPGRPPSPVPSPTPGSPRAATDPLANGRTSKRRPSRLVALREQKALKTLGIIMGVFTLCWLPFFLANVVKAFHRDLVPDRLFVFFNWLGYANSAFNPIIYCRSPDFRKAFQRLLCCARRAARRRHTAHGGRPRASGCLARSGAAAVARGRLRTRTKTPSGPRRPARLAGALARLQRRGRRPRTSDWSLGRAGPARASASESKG
Experimental: as §8
Selectivity of a compound was determined using the following procedures. The effect on heart rate (β1 -effect) was determined using isolated right atria. […] The right atria were dissected and clamped at one end to a tissue holder and electrode assembly (MRA Corp.) and tied at the other end to a force-displacement transducer (Gould-Statham, Burco). The tissues were maintained at 32° C. in a 50 ml capacity glass chamber (MRA Corp.) preloaded with 0.5 g tension. Heart rate was monitored by a Grass polygragh. […] The increase in heart rate was calculated and considered to be the maximum response for that tissue. The tissues were then washed and allowed to equilibrate for 90 minutes. Cumulative concentration-response curves were then determined for each compound or vehicle. All responses were measured 5 minutes post-exposure.

[1] = dose 0.002 % wt of chow, week 0 (before treatment)
[2] = dose 0.002 % wt of chow, week 1
[3] = dose 0.005 % wt of chow, week 0 (before treatment)
[4] = dose 0.005 % wt of chow, week 1
[5] = dose 0.02 % wt of chow, week 0 (before treatment)

Structure (SMILES): C[C@H](Cc1ccc2c(c1)OCO2)NC[C@H](O)c1cccc(Cl)c1 (racemic) [(R*,R*)-(+/-)-alpha-(((2-(1,3-benzodioxol-5-yl)-1-methylethyl)amino)methyl)-3-chlorobenzenemethanol mixture with (R*,S*)-(+/-)alpha-(((2-(1,3-benzodioxol-5-yl)-1-methylethyl)amino)methyl)-3-chlorobenzenemethanol, reference compound]
- Plasma Glucose Levels (ob/ob mice; [1]): 226 mg/100 ml
- Plasma Glucose Levels (ob/ob mice; [2]): 234 mg/100 ml
- Plasma Glucose Levels (ob/ob mice; [3]): 227 mg/100 ml
- Plasma Glucose Levels (ob/ob mice; [4]): 175 mg/100 ml
- Plasma Glucose Levels (ob/ob mice; [5]): 227 mg/100 ml
- Plasma Glucose Levels (ob/ob mice; dose 0.02 % wt of chow, week 1): 149 mg/100 ml

Structure (SMILES): COC(=O)C1(C(=O)OC)Oc2ccc(C[C@@H](C)NC[C@@H](O)c3cccc(Cl)c3)cc2O1 (relative stereo) [(R*,S*)-(+/-)-5(2-((2-(3-chlorophenyl))-2-hydroxyethyl)amino)propyl)-1,3-benzodioxole-2,2-dicarboxylic acid, dimethyl ester]
- Plasma Glucose Levels (ob/ob mice; [3]): 218 mg/100 ml
- Plasma Glucose Levels (ob/ob mice; dose 0.005 % wt of chow, week 5): 162 mg/100 ml
- Plasma Glucose Levels (ob/ob mice; dose 0.005 % wt of chow, week 10): 174 mg/100 ml
- Plasma Glucose Levels (ob/ob mice; [5]): 219 mg/100 ml
- Plasma Glucose Levels (ob/ob mice; dose 0.02 % wt of chow, week 5): 135 mg/100 ml
- Plasma Glucose Levels (ob/ob mice; dose 0.02 % wt of chow, week 10): 153 mg/100 ml

Structure (SMILES): C[C@@H](Cc1ccc2c(c1)OCO2)NC[C@H](O)c1cccc(Cl)c1 (relative stereo) [(R*,S*)-(+/-)-alpha-(((2-(1,3-benzodioxol-5-yl)-1-methylethyl)amino)methyl)-3-chlorobenzenemethanol, reference compound]
- Plasma Glucose Levels (ob/ob mice; [1]): 228 mg/100 ml
- Plasma Glucose Levels (ob/ob mice; [2]): 204 mg/100 ml
- Plasma Glucose Levels (ob/ob mice; [3]): 226 mg/100 ml
- Plasma Glucose Levels (ob/ob mice; [4]): 176 mg/100 ml
- Plasma Glucose Levels (ob/ob mice; [5]): 229 mg/100 ml
- Plasma Glucose Levels (ob/ob mice; dose 0.02 % wt of chow, week 1): 128 mg/100 ml

Structure (SMILES): COC(=O)COc1ccc(C[C@@H](C)NC[C@H](O)c2ccc(Cl)cc2)cc1 (relative stereo) [BRL1, (R*,R*)-(±)-(4-(2-((2-(4-chlorophenyl)-2-hydroxyethyl)amino)propyl)phenoxy)-acetic acid, methyl ester, reference compound]
- Plasma Glucose Levels (db/db mice; week 0 (before treatment)): 440 mg/100 ml
- Plasma Glucose Levels (db/db mice; week 1): 138 mg/100 ml
- Plasma Glucose Levels (db/db mice; week 2): 132 mg/100 ml
- Plasma Glucose Levels (ob/ob mice; dose 0.0001 % wt of chow, week 0 (before treatment)): 231 mg/100 ml
- Plasma Glucose Levels (ob/ob mice; dose 0.0001 % wt of chow, week 1): 143 mg/100 ml
- Plasma Glucose Levels (ob/ob mice; dose 0.0001 % wt of chow, week 2): 119 mg/100 ml
- Plasma Glucose Levels (ob/ob mice; dose 0.0005 % wt of chow, week 0 (before treatment)): 232 mg/100 ml
- Plasma Glucose Levels (ob/ob mice; dose 0.0005 % wt of chow, week 1): 140 mg/100 ml
- Plasma Glucose Levels (ob/ob mice; dose 0.0005 % wt of chow, week 2): 126 mg/100 ml
- Plasma Glucose Levels (ob/ob mice; [3]): 231 mg/100 ml
- Plasma Glucose Levels (ob/ob mice; [4]): 137 mg/100 ml
- Plasma Glucose Levels (ob/ob mice; dose 0.005 % wt of chow, week 2): 138 mg/100 ml
- pEC50 (β2-receptors): 6.92
- β2 activity (β2-receptors): more of the undesirable β1 and β2 activities than does CL1
- pEC50 (β3-receptors): 7.89
- β3 potency in comparison (β3-receptors; CL1 vs BRL1 (FIG. 1), CL2 vs BRL2 (FIG. 2)): slightly greater β3 potency
- Selectivity for Lipolysis over Atria ((EC50 - β1)/(EC50 - β3)) (β3-receptors; ratio EC50 β1 / EC50 β3): 15
- Selectivity for Lipolysis over Gly. Syn. ((EC50 - β2)/(EC50 - β3)) (β3-receptors; ratio EC50 β2 / EC50 β3): 9
- pEC50 (β1-receptors): 6.70
- β1 activity (β1-receptors): more of the undesirable β1 and β2 activities than does CL1

Structure (SMILES): C[C@H](Cc1ccc(OCC(=O)[O-])cc1)NC[C@H](O)c1cccc(Cl)c1.[Na+] (relative stereo) [BRL2, (R*,R*)(+/-)4-(2-((2-(3-chlorophenyl)-2-hydroxyethyl)amino)propyl)phenoxy-acetic acid, monosodium salt]
- pEC50 (β2-receptors): 6.10
- β2 activity (β2-receptors): full agonist with measurable activity at 1×10^-7M
- pEC50 (β1-receptors): 5.25
- β1 activity (β1-receptors): significant β1 activity

Structure (SMILES): COC(=O)C1(C(=O)OC)Oc2ccc(C[C@@H](C)NC[C@H](O)c3cccc(Cl)c3)cc2O1 (stereo in doubt) [CL5, (R,R)(+/-)5-(2-((2-(3-chlorophenyl)-2-hydroxyethyl)-amino)propyl)-1,3-benzodioxole-2,2-dicarboxylic acid, dimethyl ester hydrobomide]
- relative β3 potency of RR over SS form (β3-receptors; RR vs SS enantiomer, lipolysis): 36 fold

Structure (SMILES): COC(=O)C1(C(=O)OC)Oc2ccc(C[C@H](C)NC[C@@H](O)c3cccc(Cl)c3)cc2O1 (stereo in doubt) [CL6, (S,S)(+/-)5-(2-((2-(3-chlorophenyl)-2-hydroxyethyl)-amino)propyl)-1,3-benzodioxole-2,2-dicarboxylic acid, dimethyl ester hydrobomide]
- pEC50 (β3-receptors; read-out: Lipolysis (β3) (EC50)): 6.54
